{
  "source": "patent US20100055032A1",
  "about": "“METHODS FOR […] IMAGING USING NANOP[…] AGENTS” (NanoScan Imaging LLC, priority 2001, published 2010)",
  "conditions": "for Percent Uptake (%) Aorta / Percent Uptake (%) Brain / Percent Uptake (%) Cardiac / Percent Uptake (%) Liver / Percent Uptake (%) Portal Vein / Percent Uptake (%) Posterior Vena Cava / Percent Uptake (%) Spleen: pre-treatment = 100.0",
  "key": {"[1]": {"conditions": "Rabbit No. 3081, 18 mL/90 min IV infusion (900 mg/kg), 255 min"}, "[2]": {"conditions": "Rabbit No. 3081, 18 mL/90 min IV infusion (900 mg/kg), 495 min"}, "[3]": {"conditions": "Rabbit No. 3086, 18 mL/90 min IV infusion (900 mg/kg), 250 min"}, "[4]": {"conditions": "Rabbit No. 3086, 18 mL/90 min IV infusion (900 mg/kg), 480 min"}},
  "note": "Where two headings read alike, the source gives them in different places.",
  "description": "Animals used in this study were six (6) male New Zealand white rabbits obtained from UCD. At the time of initiation, the rabbits were adult in age and weighed approximately 2.69±0.06 kg. The animals were housed separately in cages and fed a cholesterol enriched diet (CED) (TestDiet®—Richmond, Ind.) dry laboratory diet. Filtered tap water was provided ad labium. The animals were acclimated for a minimum of 7 days prior to the start of the study.\nThe study design comprised putting the rabbits on a CED for 5 weeks prior to the carotid overstretch procedure. At week 5, the carotid overstretch procedure was performed along with anticoagulant therapy (described below). The rabbits were then placed back on the CED with the anticoagulant therapy for an additional two (2) weeks. The rabbits were then anesthetized and Computer Tomography (CT) studies were performed. An iodinated nanoparticle, PH-50, having a mean diameter of 282 nm and a concentration of 15% (w/v) was evaluated in intact male rabbits with an average weight of 2.69±0.06 kg. Six (6) mL/kg of PH-50 was infused over ninety (90) minutes intravenously (IV) via an ear vein. The rabbits were then euthanized and necropsied after the 8 hour CT study.\nThe CED diet consisted of Purina® 5321 (a standard high-quality rabbit chow that is widely available) supplemented with 2% cholesterol, 5% coconut oil and 0.5% sodium cholate. The CED was formulated by and purchased from TestDiet® (Richmond, Ind.).\nThe carotid overstretch procedure was performed as follows: Rabbits were pretreated with an appropriate anticoagulant (heparin) prior to the procedure, and maintained on aspirin (20 mg/kg) for 14 days after the procedure. On the day of the procedure, the rabbits were boxed down and ventilated appropriately. The left carotid artery was exposed using standard techniques known in the art. A small puncture was made distal to the site to be overstretched, and a balloon catheter was placed in the artery. The vessel diameter was estimated from direct visualization. The balloon overstretch injury was performed using balloon diameters 30% greater than the baseline arterial diameter at the target areas three inflations of the balloon at approximately 6 atmospheric pressure for 30 seconds each, with a one-minute interval between inflations. Afterwards, the catheter was withdrawn and the rabbits allowed to recover for 14 days prior to the administration of PH-50. The animals were maintained on the CED and aspirin therapy during the 14-day recovery period. Fourteen (14) days following the overstretch procedure, the rabbits were anesthetized and maintained under anesthesia during PH-50 infusion and the CT scan procedures. […] In addition, whole body CT scans were made at contiguous 5 mm slices (at pretreatment, 4 hours and 8 hour studies).\nThe computer tomography (CT) imaging was performed with a GE® Hi-Speed Computed Tomography Scanner (Milwaukee, Wis.). The CT images were stored as DICOM3 images in GE® optical disks, CD-Rom. The parameter for CT imaging were 1 mm contiguous slices at 120 kvp, 1.5 seconds at 150 mA. CT scans of the entire rabbit were performed (from rostral nasal area to pelvis at specified times).",
  "data": [
    {"smiles": "CCOC(=O)CCCCCOC(=O)c1c(I)c(NC(C)=O)c(I)c(NC(C)=O)c1I", "note": "[PH-50, 6-ethoxy-6-oxohexy-3,5-bis(acetylamino)-2,4,6-triiodobenzoate]", "values": [
      {"measurement": "Hounsfield Units (HU) Aorta", "setting": "[1]", "result": 56.5, "unit": "HU"},
      {"measurement": "Hounsfield Units (HU) Brain", "setting": "[1]", "result": 49.1, "unit": "HU"},
      {"measurement": "Hounsfield Units (HU) Cardiac", "setting": "[1]", "result": 136.2, "unit": "HU"},
      {"measurement": "Hounsfield Units (HU) Liver", "setting": "[1]", "result": 169.3, "unit": "HU"},
      {"measurement": "Hounsfield Units (HU) Portal Vein", "setting": "[1]", "result": 56.4, "unit": "HU"},
      {"measurement": "Hounsfield Units (HU) Posterior Vena Cava", "setting": "[1]", "result": 95.3, "unit": "HU"},
      {"measurement": "Hounsfield Units (HU) Spleen", "setting": "[1]", "result": 449.8, "unit": "HU"},
      {"measurement": "Hounsfield Units (HU) Aorta", "setting": "[2]", "result": 89.3, "unit": "HU"},
      {"measurement": "Hounsfield Units (HU) Brain", "setting": "[2]", "result": 36.8, "unit": "HU"},
      {"measurement": "Hounsfield Units (HU) Cardiac", "setting": "[2]", "result": 138.8, "unit": "HU"},
      {"measurement": "Hounsfield Units (HU) Liver", "setting": "[2]", "result": 110.6, "unit": "HU"},
      {"measurement": "Hounsfield Units (HU) Portal Vein", "setting": "[2]", "result": 55.4, "unit": "HU"},
      {"measurement": "Hounsfield Units (HU) Posterior Vena Cava", "setting": "[2]", "result": 87.8, "unit": "HU"},
      {"measurement": "Hounsfield Units (HU) Spleen", "setting": "[2]", "result": 351.2, "unit": "HU"},
      {"measurement": "Percent Uptake (%) Aorta", "setting": "Rabbit No. 3081, 255 min", "result": 84.0, "unit": "%"},
      {"measurement": "Percent Uptake (%) Brain", "setting": "Rabbit No. 3081, 255 min", "result": 164.2, "unit": "%"},
      {"measurement": "Percent Uptake (%) Cardiac", "setting": "Rabbit No. 3081, 255 min", "result": 383.3, "unit": "%"},
      {"measurement": "Percent Uptake (%) Liver", "setting": "Rabbit No. 3081, 255 min", "result": 383.9, "unit": "%"},
      {"measurement": "Percent Uptake (%) Portal Vein", "setting": "Rabbit No. 3081, 255 min", "result": 128.5, "unit": "%"},
      {"measurement": "Percent Uptake (%) Posterior Vena Cava", "setting": "Rabbit No. 3081, 255 min", "result": 141.0, "unit": "%"},
      {"measurement": "Percent Uptake (%) Spleen", "setting": "Rabbit No. 3081, 255 min", "result": 510.6, "unit": "%"},
      {"measurement": "Percent Uptake (%) Aorta", "setting": "Rabbit No. 3081, 495 min", "result": 132.7, "unit": "%"},
      {"measurement": "Percent Uptake (%) Brain", "setting": "Rabbit No. 3081, 495 min", "result": 123.1, "unit": "%"},
      {"measurement": "Percent Uptake (%) Cardiac", "setting": "Rabbit No. 3081, 495 min", "result": 250.8, "unit": "%"},
      {"measurement": "Percent Uptake (%) Liver", "setting": "Rabbit No. 3081, 495 min", "result": 250.8, "unit": "%"},
      {"measurement": "Percent Uptake (%) Portal Vein", "setting": "Rabbit No. 3081, 495 min", "result": 126.2, "unit": "%"},
      {"measurement": "Percent Uptake (%) Posterior Vena Cava", "setting": "Rabbit No. 3081, 495 min", "result": 129.9, "unit": "%"},
      {"measurement": "Percent Uptake (%) Spleen", "setting": "Rabbit No. 3081, 495 min", "result": 398.6, "unit": "%"},
      {"measurement": "Hounsfield Units (HU) Aorta", "setting": "[3]", "result": 64.0, "unit": "HU"},
      {"measurement": "Hounsfield Units (HU) Brain", "setting": "[3]", "result": 31.3, "unit": "HU"},
      {"measurement": "Hounsfield Units (HU) Cardiac", "setting": "[3]", "result": 220.2, "unit": "HU"},
      {"measurement": "Hounsfield Units (HU) Liver", "setting": "[3]", "result": 189.4, "unit": "HU"},
      {"measurement": "Hounsfield Units (HU) Portal Vein", "setting": "[3]", "result": 54.5, "unit": "HU"},
      {"measurement": "Hounsfield Units (HU) Posterior Vena Cava", "setting": "[3]", "result": 96.5, "unit": "HU"},
      {"measurement": "Hounsfield Units (HU) Spleen", "setting": "[3]", "result": 786.6, "unit": "HU"},
      {"measurement": "Hounsfield Units (HU) Aorta", "setting": "[4]", "result": 24.1, "unit": "HU"},
      {"measurement": "Hounsfield Units (HU) Brain", "setting": "[4]", "result": 34.7, "unit": "HU"},
      {"measurement": "Hounsfield Units (HU) Cardiac", "setting": "[4]", "result": 200.3, "unit": "HU"},
      {"measurement": "Hounsfield Units (HU) Liver", "setting": "[4]", "result": 98.2, "unit": "HU"},
      {"measurement": "Hounsfield Units (HU) Portal Vein", "setting": "[4]", "result": 28.1, "unit": "HU"},
      {"measurement": "Hounsfield Units (HU) Posterior Vena Cava", "setting": "[4]", "result": 58.6, "unit": "HU"},
      {"measurement": "Hounsfield Units (HU) Spleen", "setting": "[4]", "result": 228.5, "unit": "HU"},
      {"measurement": "Percent Uptake (%) Aorta", "setting": "Rabbit No. 3086, 250 min", "result": 186.6, "unit": "%"},
      {"measurement": "Percent Uptake (%) Brain", "setting": "Rabbit No. 3086, 250 min", "result": 81.3, "unit": "%"},
      {"measurement": "Percent Uptake (%) Cardiac", "setting": "Rabbit No. 3086, 250 min", "result": 320.1, "unit": "%"},
      {"measurement": "Percent Uptake (%) Liver", "setting": "Rabbit No. 3086, 250 min", "result": 384.2, "unit": "%"},
      {"measurement": "Percent Uptake (%) Portal Vein", "setting": "Rabbit No. 3086, 250 min", "result": 122.7, "unit": "%"},
      {"measurement": "Percent Uptake (%) Posterior Vena Cava", "setting": "Rabbit No. 3086, 250 min", "result": 204.9, "unit": "%"},
      {"measurement": "Percent Uptake (%) Spleen", "setting": "Rabbit No. 3086, 250 min", "result": 792.9, "unit": "%"},
      {"measurement": "Percent Uptake (%) Aorta", "setting": "Rabbit No. 3086, 480 min", "result": 70.3, "unit": "%"},
      {"measurement": "Percent Uptake (%) Brain", "setting": "Rabbit No. 3086, 480 min", "result": 90.1, "unit": "%"},
      {"measurement": "Percent Uptake (%) Cardiac", "setting": "Rabbit No. 3086, 480 min", "result": 291.1, "unit": "%"},
      {"measurement": "Percent Uptake (%) Liver", "setting": "Rabbit No. 3086, 480 min", "result": 199.2, "unit": "%"},
      {"measurement": "Percent Uptake (%) Portal Vein", "setting": "Rabbit No. 3086, 480 min", "result": 63.3, "unit": "%"},
      {"measurement": "Percent Uptake (%) Posterior Vena Cava", "setting": "Rabbit No. 3086, 480 min", "result": 124.4, "unit": "%"},
      {"measurement": "Percent Uptake (%) Spleen", "setting": "Rabbit No. 3086, 480 min", "result": 230.3, "unit": "%"},
      {"measurement": "adverse reactions during the infusion", "setting": "anesthetized rabbits, 6 mL/kg IV over 90 min", "result": "No adverse reactions"},
      {"measurement": "blood pressure or heart rate", "setting": "anesthetized rabbits, during infusion of 6 mL/kg IV over 90 min", "result": "no increase"}
    ]}
  ]
}
